Test results from US20120244567A1, “HUMAN EMBRYONIC STEM CELLS FOR HIGH THROUGHOUT DRUG SCREENING” (BUCK INSTITUTE FOR RESEARCH ON AGING, priority 2009, published 2012).
Counter-ions that a name gives are not always drawn.

Test system: dopaminergic neurons
Conditions: enriched in treated DA neurons
Method: RNAs isolated from NSCs and neurons with and without drug treatments were hybridized to Illumina HumanRef-8 BeadChip (Illumina, Inc., San Diego, Calif., performed by Microarray core facility at the Burnham Institute for Medical Research). The Illumina array data were normalized by the quantile method, and then transformed log 2 ratio values for a zero mean for expression values of each gene across all samples. The statistical and bioinformatics analyses were conducted by using R and the bioconductor package (www.bioconductor.org). The gene set enrichment analysis was conducted using the GSEA software (www.broad.mit.edu/gsea).
The comparative results are then measured by a non-parametric, running sum statistic termed the enrichment score. The enrichment score significance is assessed by 1,000 permutation tests to compute the enrichment p-value.

Structure (SMILES): CCCCc1oc2ccccc2c1C(=O)c1cc(I)c(OCCN(CC)CC)c(I)c1 [Amiodarone Hydrochloride]
- Nes: Secondary Active Transmembrane Transporter Activity (Nom P-Val 0): 1.633
- Nes: Protein Serine Threonine Kinase Activity (Nom P-Val 0.027778): 1.386
- Nes: Sequence Specific Dna Binding (Nom P-Val 0.056338): 1.388
- Nes: Phosphotransferase Activity Alcohol Group As Acceptor (Nom P-Val 0.059524): 1.237
- Nes: Anion Transmembrane Transporter Activity (Nom P-Val 0.065574): 1.432
- Nes: Lipase Activity (Nom P-Val 0.067797): 1.422
- Nes: Active Transmembrane Transporter Activity (Nom P-Val 0.082192): 1.376
- Nes: Receptor Signaling Protein Serine Threonine Kinase Activity (Nom P-Val 0.157895): 1.268
- Nes: Protein Kinase Activity (Nom P-Val 0.176471): 1.196
- Nes: Structural Constituent Of Muscle (Nom P-Val 0.207547): 1.208
- Nes: Structure Specific Dna Binding (Nom P-Val 0.230769): 1.183
- Nes: Receptor Signaling Protein Activity (Nom P-Val 0.236842): 1.149
- Nes: Ligase Activity Forming Carbon Nitrogen Bonds (Nom P-Val 0.242857): 1.127
- Nes: Small Conjugating Protein Ligase Activity (Nom P-Val 0.243243): 1.144
- Nes: Ligase Activity (Nom P-Val 0.25): 1.14
- Nes: Phosphoric Diester Hydrolase Activity (Nom P-Val 0.25): 1.183
- Nes: Rhodopsin Like Receptor Activity (Nom P-Val 0.25): 1.144
- Nes: Small Protein Conjugating Enzyme Activity (Nom P-Val 0.257576): 1.146
- Nes: Deoxyribonuclease Activity (Nom P-Val 0.258621): 1.315
- Nes: Acid Amino Acid Ligase Activity (Nom P-Val 0.28): 1.18
- Nes: Ubiquitin Protein Ligase Activity (Nom P-Val 0.301587): 1.139
- Nes: Atp Binding (Nom P-Val 0.318841): 1.077
- Nes: Atpase Activity Coupled To Movement Of Substances (Nom P-Val 0.355932): 1.065
- Nes: Dna Binding (Nom P-Val 0.359551): 1.034
- Nes: Nuclease Activity (Nom P-Val 0.360656): 1.072
- Nes: Hydrogen Ion Transmembrane Transporter Activity (Nom P-Val 0.366667): 1.078
- Nes: Udp Glycosyltransferase Activity (Nom P-Val 0.366667): 1.093
- Nes: Kinase Activity (Nom P-Val 0.367816): 1.036
- Nes: Rna Polymerase Ii Transcription Factor Activity (Nom P-Val 0.371429): 1.042
- Nes: Hydrolase Activity Acting On Acid Anhydrides Catalyzing Transmembrane Movement Of Substances (Nom P-Val 0.376812): 1.094
- Nes: Double Stranded Dna Binding (Nom P-Val 0.37931): 1.072
- Nes: Enzyme Activator Activity (Nom P-Val 0.382353): 1.049
- Nes: Transmembrane Receptor Activity (Nom P-Val 0.382716): 1.055
- Nes: Inorganic Cation Transmembrane Transporter Activity (Nom P-Val 0.40625): 1.065
- Nes: Enzyme Inhibitor Activity (Nom P-Val 0.409091): 1.052
- Nes: Transferase Activity Transferring Groups Other Than Amino Acyl Groups (Nom P-Val 0.415385): 1.05
- Nes: Endonuclease Activity (Nom P-Val 0.419355): 0.9859
- Nes: Cytokine Activity (Nom P-Val 0.421875): 1.063
- Nes: Oxidoreductase Activity Acting On Ch Oh Group Of Donors (Nom P-Val 0.424242): 1.054
- Nes: Oxidoreductase Activity Acting On The Ch Ch Group Of Donors (Nom P-Val 0.428571): 1.028
- Nes: Primary Active Transmembrane Transporter Activity (Nom P-Val 0.430556): 1.056
- Nes: Gtpase Activity (Nom P-Val 0.442857): 1.015
- Nes: Transferase Activity Transferring Acyl Groups (Nom P-Val 0.451613): 1.003
- Nes: Damaged Dna Binding (Nom P-Val 0.45283): 1.036
- Nes: Phosphatase Regulator Activity (Nom P-Val 0.467742): 1.042
- Nes: N Acetyltransferase Activity (Nom P-Val 0.473684): 1.019
- Nes: Structural Constituent Of Cytoskeleton (Nom P-Val 0.482759): 0.9708
- Nes: Adenyl Ribonucleotide Binding (Nom P-Val 0.506667): 0.9848
- Nes: G Protein Coupled Receptor Activity (Nom P-Val 0.514706): 0.9852
- Nes: Protease Inhibitor Activity (Nom P-Val 0.516667): 0.9864
- Nes: Transmembrane Receptor Protein Kinase Activity (Nom P-Val 0.516667): 0.965
- Nes: N Acyltransferase Activity (Nom P-Val 0.519231): 0.9889
- Nes: Enzyme Regulator Activity (Nom P-Val 0.520548): 0.9793
- Nes: Hormone Activity (Nom P-Val 0.523077): 0.9749
- Nes: General Rna Polymerase Ii Transcription Factor Activity (Nom P-Val 0.530612): 0.9238
- Nes: Pyrophosphatase Activity (Nom P-Val 0.54321): 0.9536
- Nes: Purine Ribonucleotide Binding (Nom P-Val 0.5625): 0.9577
- Nes: Receptor Activity (Nom P-Val 0.5625): 0.9738
- Nes: Transferase Activity Transferring Sulfur Containing Groups (Nom P-Val 0.566667): 0.9403
- Nes: Magnesium Ion Binding (Nom P-Val 0.567568): 0.9401
- Nes: Integrin Binding (Nom P-Val 0.571429): 0.9141
- Nes: Substrate Specific Transporter Activity (Nom P-Val 0.573171): 0.929
- Nes: Acetyltransferase Activity (Nom P-Val 0.6): 0.9474
- Nes: Single Stranded Dna Binding (Nom P-Val 0.605634): 0.9533
- Nes: Protein Homodimerization Activity (Nom P-Val 0.621212): 0.8817
- Nes: Protein Domain Specific Binding (Nom P-Val 0.628571): 0.9357
- Nes: Lipid Transporter Activity (Nom P-Val 0.62963): 0.9194
- Nes: Protein Dimerization Activity (Nom P-Val 0.636364): 0.9248
- Nes: Ion Transmembrane Transporter Activity (Nom P-Val 0.64): 0.9276
- Nes: Transferase Activity Transferring Hexosyl Groups (Nom P-Val 0.642857): 0.9266
- Nes: Nucleotide Binding (Nom P-Val 0.643836): 0.9324
- Nes: Transferase Activity Transferring Phosphorus Containing Groups (Nom P-Val 0.64557): 0.9499
- Nes: Zinc Ion Binding (Nom P-Val 0.647059): 0.896
- Nes: Translation Regulator Activity (Nom P-Val 0.661017): 0.8764
- Nes: Translation Factor Activity Nucleic Acid Binding (Nom P-Val 0.681159): 0.8454
- Nes: Carbohydrate Binding (Nom P-Val 0.688525): 0.8882
- Nes: Adenyl Nucleotide Binding (Nom P-Val 0.694118): 0.8847
- Nes: Microtubule Binding (Nom P-Val 0.696429): 0.8123
- Nes: Substrate Specific Transmembrane Transporter Activity (Nom P-Val 0.697368): 0.9071
- Nes: Transcription Cofactor Activity (Nom P-Val 0.7): 0.8775
- Nes: Transcription Coactivator Activity (Nom P-Val 0.708333): 0.8777
- Nes: Sulfotransferase Activity (Nom P-Val 0.719298): 0.88
- Nes: Endopeptidase Activity (Nom P-Val 0.720588): 0.8136
- Nes: Metallopeptidase Activity (Nom P-Val 0.733333): 0.8731
- Nes: Neurotransmitter Binding (Nom P-Val 0.754717): 0.789
- Nes: Neurotransmitter Receptor Activity (Nom P-Val 0.757576): 0.7972
- Nes: Lyase Activity (Nom P-Val 0.758065): 0.8646
- Nes: Transmembrane Transporter Activity (Nom P-Val 0.759494): 0.8985
- Nes: Transcription Repressor Activity (Nom P-Val 0.76): 0.8555
- Nes: Nucleoside Triphosphatase Activity (Nom P-Val 0.761905): 0.8734
- Nes: Purine Nucleotide Binding (Nom P-Val 0.763158): 0.861
- Nes: Hydrolase Activity Acting On Acid Anhydrides (Nom P-Val 0.770115): 0.8688
- Nes: Motor Activity (Nom P-Val 0.77193): 0.7716
- Nes: Calcium Channel Activity (Nom P-Val 0.781818): 0.7534
- Nes: Hydro Lyase Activity (Nom P-Val 0.792453): 0.773
- Nes: Calcium Ion Binding (Nom P-Val 0.805556): 0.7913
- Nes: Hydrolase Activity Acting On Carbon Nitrogen But Not Peptide Bonds In Linear Amides (Nom P-Val 0.826923): 0.6663
- Nes: Transmembrane Receptor Protein Tyrosine Kinase Activity (Nom P-Val 0.828947): 0.7856
- Nes: Ion Binding (Nom P-Val 0.833333): 0.813
- Nes: Molecular Adaptor Activity (Nom P-Val 0.84507): 0.7682
- Nes: Gtp Binding (Nom P-Val 0.848485): 0.769
- Nes: Guanyl Nucleotide Exchange Factor Activity (Nom P-Val 0.857143): 0.7708
- Nes: Carbon Oxygen Lyase Activity (Nom P-Val 0.86): 0.7402
